From patent US20110054179A1, “MMP-2 AND/OR MMP-9 INHIBITOR” (priority 2008, published 2011)

What was measured:
[1] = tested on: elastase-induced lung injury; experiment: Rabbit model of elastase-induced lung injury: lung histology (alveolar destruction, airway subepithelial fibrotic changes); format: in vivo
Source text: Rabbits were divided into three groups (n=10 animals/group). Two hundred U/kg of porcine pancreatic elastase (PPE) was intratracheally administered into the lungs of the animals in the Vehicle and the Compound A group. The animals in the Sham group was intratracheally administered the same volume of saline instead of PPE. The rabbits were dissected 28 days after PPE administration. The lung tissue of each rabbit was fixed in formalin to prepare histological sections thereof. Two hours prior to the administration of PPE, Vehicle (0.5% tragacanth) or Compound A (10 mg/kg) was orally administered to the rabbits in the Vehicle and the Compound A group, respectively; from the next day, the oral administration of Vehicle or Compound A was continued once a day, 5 days a week until the end of the experiment. The histological sections were immunohistochemically stained using respective antibodies against MMP-2 or MMP-9. Then, under the microscope, the extent of MMP-2 and MMP-9 expression was evaluated, and expressed as a score. The extent of the fibrotic changes in the airway subepithelial region and the extent of alveolar destruction were also observed.

[2] = tested on: bleomycin- or asbestos-induced lung fibrosis; details: bleomycin- or asbestos-induced lung fibrosis animal model; cited from earlier work
[3] = 28 days after PPE, 10 mg/kg oral, vs. Vehicle group

| SMILES | Alveolar Mean Linear Intercept (Average ± Standard deviation) ([1]; 28 days after PPE 200 U/kg intratracheal, 10 mg/kg oral once a day, 5 days a week, p<0.01 vs. Vehicle) [μm ##] | alveolar destruction [1, 3] | thickening of the airway subepithelial layer resulted from fibrotic changes [1, 3] | increase in MMP activity and the number of white blood cell infiltrated in the bronchoalveolar lavage fluid [2] | lung fibrosis in the histological and biochemical aspects [2] |
| --- | --- | --- | --- | --- | --- |
| CCOc1ccc(-c2nc(-c3cccc(C(=O)O)n3)cs2)cc1OCC [Compound A, 6-[2-(3,4-diethoxyphenyl)thiazol-4-yl]pyridine-2-carboxylic acid] | 72.8 ± 2.6 | significantly suppressed | alleviated |  |  |
| CNC(=O)[C@H](Cc1c[nH]c2ccccc12)NC(=O)[C@@H](CC(=O)NO)CC(C)C [GM6001] |  |  |  | suppressed | suppressed |
